Measured values from PubChem BioAssay (NCI).
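Interpolation was linear, between the two tested concentrations surrounding the appropriate level; five concentrations were tested over 48 hours in 96-well plates. TGI denotes the concentration required for complete inhibition of growth.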

How the values were obtained:
Assay in all cases: NCI anticancer screen, dose series, 48 h
SK-OV-3 ovarian = system: SK-OV-3 ovarian
OVCAR-3 ovarian = system: OVCAR-3 ovarian
HL-60(TB) leukemia = system: HL-60(TB) leukemia
SF-539 CNS = system: SF-539 CNS
SF-295 CNS = system: SF-295 CNS
HCT-15 colon = system: HCT-15 colon
HOP-18 NSCLC = system: HOP-18 NSCLC
SNB-75 CNS = system: SNB-75 CNS
786-0 renal = system: 786-0 renal
SK-MEL-28 melanoma = system: SK-MEL-28 melanoma
OVCAR-8 ovarian = system: OVCAR-8 ovarian
NCI-H522 lung = system: NCI-H522 lung
SNB-19 CNS = system: SNB-19 CNS
KM20L2 colon = system: KM20L2 colon
SK-MEL-2 melanoma = system: SK-MEL-2 melanoma
HT29 colon = system: HT29 colon
OVCAR-4 ovarian = system: OVCAR-4 ovarian
SNB-78 CNS = system: SNB-78 CNS
UACC-62 melanoma = system: UACC-62 melanoma
SW-620 colon = system: SW-620 colon
M19-MEL melanoma = system: M19-MEL melanoma
UACC-257 melanoma = system: UACC-257 melanoma
A498 renal = system: A498 renal
SF-268 CNS = system: SF-268 CNS
M14 melanoma = system: M14 melanoma
DMS 273 small cell lung = system: DMS 273 small cell lung
K-562 leukemia = system: K-562 leukemia
U251 CNS = system: U251 CNS
NCI-H460 lung = system: NCI-H460 lung
RPMI-8226 leukemia = system: RPMI-8226 leukemia
CAKI-1 renal = system: CAKI-1 renal
SK-MEL-5 melanoma = system: SK-MEL-5 melanoma
HCC-2998 colon = system: HCC-2998 colon
UO-31 renal = system: UO-31 renal
DMS 114 small cell lung = system: DMS 114 small cell lung
MOLT-4 leukemia = system: MOLT-4 leukemia
CCRF-CEM leukemia = system: CCRF-CEM leukemia
HOP-92 NSCLC = system: HOP-92 NSCLC
NCI-H226 lung = system: NCI-H226 lung
OVCAR-5 ovarian = system: OVCAR-5 ovarian
NCI-H23 lung = system: NCI-H23 lung
COLO 205 colon = system: COLO 205 colon
KM12 colon = system: KM12 colon
LXFL 529 NSCLC = system: LXFL 529 NSCLC
SR leukemia = system: SR leukemia
A549 NSCLC = system: A549 NSCLC
LOX IMVI melanoma = system: LOX IMVI melanoma
ACHN renal = system: ACHN renal
TK-10 renal = system: TK-10 renal
IGROV1 ovarian = system: IGROV1 ovarian
RXF 393 renal = system: RXF 393 renal
SN12C renal = system: SN12C renal
HCT-116 colon = system: HCT-116 colon
MALME-3M melanoma = system: MALME-3M melanoma
HOP-62 NSCLC = system: HOP-62 NSCLC
DLD-1 colon = system: DLD-1 colon
EKVX NSCLC = system: EKVX NSCLC

Measured: TGI

CCCCCCCCCCCCCCCC/C(C(=O)OC)=C(/O)C(=O)OCC
84.9 µM: HOP-92 NSCLC
not listed: EKVX NSCLC
> 100 µM: all other assays above

COc1ccc(/C(=N/O)C(c2ccc(OC)cc2)C2C(=O)Oc3ccccc32)cc1 (configuration not stated)
11.7 µM: SF-295 CNS
7.05 µM: COLO 205 colon
79.9 µM: DMS 114 small cell lung
80.6 µM: HOP-92 NSCLC
68.2 µM: SK-MEL-5 melanoma
not listed: OVCAR-3 ovarian | SNB-19 CNS | KM20L2 colon | DMS 273 small cell lung | RXF 393 renal | HOP-62 NSCLC
> 100 µM: all other assays above

O=C(c1ccccc1)N1CCN2CCN=C(c3ccccc3)C21c1ccccc1 (configuration not stated)
not listed: HCT-15 colon | NCI-H522 lung | SF-268 CNS | CAKI-1 renal | OVCAR-5 ovarian | SR leukemia | SN12C renal
> 100 µM: all other assays above
